Data from article PMC12368060 (Communications Biology, 2025).
Square brackets hold non-standard residues; d marks the D form. Peptide text beside a SMILES is read from it. * marks the point of attachment. FITC = O=C1OC2(c3ccc(O)cc3Oc3cc(O)ccc32)c2ccc(NC(=S)*)cc21; pS = N[C@@H](COP(=O)(O)O)C(=O)O; Ahx = NCCCCCC(=O)O

Target: GST-LC3B (Homo sapiens, UniProt Q9GZQ8)
Assay: Surface plasmon resonance
Assay type: binding
Conditions: read-out: kon (on-rate)

Row | kon [M⁻¹ s⁻¹] | Structure (SMILES)
1 | 550 | CC[C@H](C)[C@H](NC(=O)[C@H](CCC(=O)O)NC(=O)[C@@H](NC(=O)[C@H](Cc1ccccc1)NC(=O)[C@H](CO)NC(=O)[C@H](CC(=O)O)NC(=O)[C@H](CCC(=O)O)NC(=O)[C@H](CO)NC(=O)[C@H](CO)NC(=O)CNC(=O)[C@H](CO)NC(=O)[C@H](CO)NC(=O)[C@H](CC(N)=O)NC(=O)CCCCCNC(=S)Nc1ccc2c(c1)C(=O)OC21c2ccc(O)cc2Oc2cc(O)ccc21)C(C)C)C(=O)N[C@@H](CCCNC(=N)N)C(=O)N[C@@H](CCSC)C(=O)N[C@@H](C)C(=O)N[C@@H](CCC(=O)O)C(=O)O [WT] ({FITC-Ahx}-NSSGSSEDSFVEIRMAE-OH)
2 | 17800 | CC[C@H](C)[C@H](NC(=O)[C@H](CCC(=O)O)NC(=O)[C@@H](NC(=O)[C@H](Cc1ccccc1)NC(=O)[C@H](COP(=O)(O)O)NC(=O)[C@H](CC(=O)O)NC(=O)[C@H](CCC(=O)O)NC(=O)[C@H](CO)NC(=O)[C@H](CO)NC(=O)CNC(=O)[C@H](CO)NC(=O)[C@H](CO)NC(=O)[C@H](CC(N)=O)NC(=O)CCCCCNC(=S)Nc1ccc2c(c1)C(=O)OC21c2ccc(O)cc2Oc2cc(O)ccc21)C(C)C)C(=O)N[C@@H](CCCNC(=N)N)C(=O)N[C@@H](CCSC)C(=O)N[C@@H](C)C(=O)N[C@@H](CCC(=O)O)C(=O)O [pS177] ({FITC-Ahx}-NSSGSSED[pS]FVEIRMAE-OH)
